Data taken from US20260207565A1, “COMPOUNDS THAT INHIBIT PKMYT1” (Exelixis, Inc., priority 2022, published 2026).
Each block holds one compound with its values, some of them ahead of it.

How the values were obtained:
[1] = test system: phosphorylation of CDK1 at Thr14 in HCC1806 cells; experiment: Cell lysate AlphaLISA assay measuring inhibition of phosphorylation of CDK1 Thr14; type: cell-based; details: Homo sapiens, HCC1806, 4 h, compounds incubated 4 hours, AlphaLISA SureFire Ultra CDK1 Thr14, read-out: Cellular IC50
Procedure: (§1) Biochemical IC50 values were determined via ADP-Glo™ assay. Cellular IC50 values were determined via AlphaLISA assay.
Cell lysate AlphaLISA® assay measuring inhibition of phosphorvlation of CDK1 Thr14. Inhibition of phosphorylation of CDK1 at Thr14 was determined using AlphaLISAn SureFire® Ultra™ Kit from Perkin Elmer (ALSU-PCDK1-A10K). HCC1806 cells were seeded at 2K cells per well (50 μl/well) in 384-well plates (Corning 3570) and stored overnight at 37° C. and 5% CO2. The following day, the compounds dissolved in DMSO were introduced to the cells and incubated for 4 hours at 37° C. and 5% CO2. The cells were then washed with PBS using Blue® Washer and 10 μl of lysis buffer containing protease inhibitor was added. The plate was placed on an orbital shaker (at 4° C.) for 30 minutes and stored overnight at −80° C. for complete lysing. The next day, the plates were thawed at room temperature for at least 30 min. Reagents were prepared in a dimmed light setting (<100 lumens). The assay was run by first adding 5 μl of the acceptor mix (reaction buffer 1: reaction buffer 2:activation buffer:acceptor beads 47:47:4:2), covering the plate with foil, shaking for 2 minutes, and incubating at RT for 60 minutes. The donor mix (dilution buffer:donor beads 47:3) was then added at 5 μl per well, placed on the shaker for 2 minutes and incubated at RT for 60 minutes before reading the plates on a PHERAstar® plate reader. The results were normalized to DMSO (0% Inhibition) and 3 μM of reference compound.

PKMYT1 = target: T1, PKMYT1 (Homo sapiens, UniProt Q99640); experiment: ADP-Glo PKMYT1 ATP-depletion assay; details: 50 nM PKMYT1, 13.3 nM CDK1, 88 μM ATP, 120 minutes at RT, read-out: Biochemical IC50
T1 construct: PKMYT1 (93 kD, full length, N-terminal GST tag from Signal Chem); GST (N); purchased Signal Chem
T1 sequence (Q99640 1-499): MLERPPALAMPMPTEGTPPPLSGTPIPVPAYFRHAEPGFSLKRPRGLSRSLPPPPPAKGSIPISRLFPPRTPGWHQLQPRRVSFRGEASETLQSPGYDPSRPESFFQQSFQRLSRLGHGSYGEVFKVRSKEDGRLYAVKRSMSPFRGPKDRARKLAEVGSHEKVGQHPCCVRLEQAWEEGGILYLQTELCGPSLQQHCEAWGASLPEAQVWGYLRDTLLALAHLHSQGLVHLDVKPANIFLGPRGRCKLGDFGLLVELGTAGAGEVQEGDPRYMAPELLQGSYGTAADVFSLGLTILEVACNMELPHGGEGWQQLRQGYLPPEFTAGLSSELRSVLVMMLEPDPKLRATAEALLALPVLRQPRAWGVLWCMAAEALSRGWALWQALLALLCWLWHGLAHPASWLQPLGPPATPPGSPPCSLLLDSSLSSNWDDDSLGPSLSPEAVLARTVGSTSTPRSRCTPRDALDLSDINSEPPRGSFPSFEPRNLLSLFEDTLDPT
Procedure: as §1
ADP-Glo™ PKMYT1 ATP-depletion assay. The activity of PKMYT1 is measured using a luciferase-luciferin based ATP detection reaction to quantify ATP depletion resulting from kinase-catalyzed phosphoryl transfer to CDK1 or autophosphorylation of PKMYT1. The ADP generated as a byproduct of the reaction is converted to ATP and used to drive a luciferase reaction. Test compounds were dissolved in DMSO and dispensed into Corning 3824 384-well plates prior to the experiment such that the final DMSO concentration was <10%. To the compounds was added 3 μL of PKMYT1 (93 kD, full length, N-terminal GST tag from Signal Chem). The reaction was started by the addition of 2 μL of CDK1 (58 kDa, full length, N-terminal GST tag from Signal Chem) and ATP in assay buffer (50 mM Hepes, 40 mM NaCl, 10 mM MgCl2, 1 mM DTT, 0.1 mg/mL BSA, 2.5 mM MnCl2). Final assay concentrations were 50 nM PKMYT1, 13.3 nM CDK1, and 88 μM ATP. Plates were centrifuged for 1 minute at 1000 RPM and incubated at RT for 120 minutes. After the incubation period, ADP-Glo™ reagent was added and the plates were incubated for another 40 minutes before finally adding the kinase detection reagent, 30 minutes after the addition, plates were placed on a PHERAstar® plate reader and read using the Luminescence Protocol, integration time at 0.5 seconds.

SMILES: Cc1c(O)cccc1-c1c(N)c(C(N)=O)nc2c1c(C#N)cn2-c1ncccc1F (atropisomer, axis not shown; (M)) [Compound 78, (M)-5-Amino-3-cyano-1-(3-fluoropyridin-2-yl)-4-(3-hydroxy-2-methylphenyl)-1H-pyrrolo[2,3-b]pyridine-6-carboxamide]
- IC50 [1]: < 50 nM
- IC50 (PKMYT1): < 50 nM

SMILES: Cc1c(O)cccc1-c1c(N)c(C(N)=O)nc2c1c(-c1c[nH]nn1)cn2C (atropisomer, axis not shown; (M)) [Compound 90, (M)-5-amino-4-(3-hydroxy-2-methylphenyl)-1-methyl-3-(1H-1,2,3-triazol-4-yl)-1H-pyrrolo[2,3-b]pyridine-6-carboxamide]
- IC50 [1]: < 50 nM
- IC50 (PKMYT1): < 50 nM

SMILES: CCn1cc(-c2cn[nH]c2)c2c(-c3cccc(O)c3C)c(N)c(C(N)=O)nc21 (atropisomer, axis not shown; (M)) [Compound 91, (M)-5-amino-1-ethyl-4-(3-hydroxy-2-methylphenyl)-3-(1H-pyrazol-4-yl)-1H-pyrrolo[2,3-b]pyridine-6-carboxamide]
- IC50 [1]: < 50 nM
- IC50 (PKMYT1): < 50 nM

SMILES: CCn1cc(C#N)c2c(-c3cccc(O)c3C)c(N)c(C(N)=O)nc21 (atropisomer, axis not shown; (M)) [Compound 92, (M)-5-amino-3-cyano-1-ethyl-4-(3-hydroxy-2-methylphenyl)-1H-pyrrolo[2,3-b]pyridine-6-carboxamide]
- IC50 [1]: < 50 nM
- IC50 (PKMYT1): < 50 nM

SMILES: CCn1cc(C(N)=O)c2c(-c3cccc(O)c3C)c(N)c(C(N)=O)nc21 (atropisomer, axis not shown; (M)) [Compound 96, (M)-5-amino-1-ethyl-4-(3-hydroxy-2-methylphenyl)-1H-pyrrolo[2,3-b]pyridine-3,6-dicarboxamide]
- IC50 [1]: < 50 nM
- IC50 (PKMYT1): < 50 nM

SMILES: Cc1ccc(O)c(C)c1-c1cc(C(N)=O)nc2c1c(C#N)cn2-c1ncccc1F (atropisomer, axis not shown; (P)) [Compound 68, (P)-3-Cyano-1-(3-fluoropyridin-2-yl)-4-(3-hydroxy-2,6-dimethylphenyl)-1H-pyrrolo[2,3-b]pyridine-6-carboxamide]
- IC50 [1]: < 50 nM
- IC50 (PKMYT1): < 50 nM

SMILES: CCn1cc(-c2ncon2)c2c(-c3c(C)ccc(O)c3C)cc(C(N)=O)nc21 (atropisomer, axis not shown; (P)) [Compound 71, (P)-1-Ethyl-4-(3-hydroxy-2,6-dimethylphenyl)-3-(1,2,4-oxadiazol-3-yl)-1H-pyrrolo[2,3-b]pyridine-6-carboxamide]
- IC50 [1]: < 50 nM
- IC50 (PKMYT1): < 50 nM

SMILES: Cc1ccc(O)c(C)c1-c1cc(C(N)=O)nc2c1c(C#N)cn2C(C)C (atropisomer, axis not shown; (P)) [Compound 88, (P)-3-cyano-4-(3-hydroxy-2,6-dimethylphenyl)-1-isopropyl-1H-pyrrolo[2,3-b]pyridine-6-carboxamide]
- IC50 [1]: < 50 nM
- IC50 (PKMYT1): < 50 nM

SMILES: Cc1ccc(O)c(C)c1-c1cc(C(N)=O)nc2c1c(Cl)cn2C (single isomer, unassigned) [Compound 31]
- IC50 (PKMYT1): ≥ 5000 nM

SMILES: Cc1ccc(O)c(C)c1-c1cc(C(N)=O)nc2c1c(Cl)cn2C (single isomer, unassigned) [Compound 32]
- IC50 (PKMYT1): 50 to 500 nM

SMILES: Cc1ccc(O)c(C)c1-c1cc(C(N)=O)nc2c1c(C#N)c(C)n2C (single isomer, unassigned) [Compound 33]
- IC50 (PKMYT1): 1000 to 5000 nM

SMILES: Cc1ccc(O)c(C)c1-c1cc(C(N)=O)nc2c1c(C#N)c(C)n2C (single isomer, unassigned) [Compound 34]
- IC50 (PKMYT1): < 50 nM

SMILES: Cc1c(Cl)cncc1-c1c(N)c(C(N)=O)nc2c1c(C#N)cn2C [Compound 10]
- IC50 (PKMYT1): 50 to 500 nM

SMILES: Cc1c(Cl)cncc1-c1c(N)c(C(N)=O)nc2c1c(C#N)cn2C [Compound 11]
- IC50 (PKMYT1): < 50 nM

More lines, now with the values ahead:

- IC50 [1]: < 50 nM
- IC50 (PKMYT1): < 50 nM
SMILES: Cc1ccc(O)c(C)c1-c1c(N)c(C(N)=O)nc2c1c(C(N)=O)nn2C (atropisomer, axis not shown; (M)) [Compound 74, (M)-5-Amino-4-(3-hydroxy-2,6-dimethylphenyl)-1-methyl-1H-pyrazolo[3,4-b]pyridine-3,6-dicarboxamide]

- IC50 [1]: < 50 nM
- IC50 (PKMYT1): < 50 nM
SMILES: CCn1cc(C(N)=O)c2c(-c3c(C)ccc(O)c3C)c(N)c(C(N)=O)nc21 (atropisomer, axis not shown; (M)) [Compound 76, (M)-5-Amino-1-ethyl-4-(3-hydroxy-2,6-dimethylphenyl)-1H-pyrrolo[2,3-b]pyridine-3,6-dicarboxamide]

- IC50 [1]: < 50 nM
- IC50 (PKMYT1): < 50 nM
SMILES: Cc1ccc(O)c(C)c1-c1c(N)c(C(N)=O)cc2c1ncn2C(F)(F)F (atropisomer, axis not shown; (P)) [Compound 70, (P)-5-Amino-4-(3-hydroxy-2,6-dimethylphenyl)-1-(trifluoromethyl)-1H-benzo[d]imidazole-6-carboxamide]

- IC50 [1]: < 50 nM
- IC50 (PKMYT1): < 50 nM
SMILES: Cc1ccc(O)c(C)c1-c1c(N)c(C(N)=O)nc2c1ncn2C(F)F (atropisomer, axis not shown; (P)) [Compound 72, (P)-6-Amino-3-(difluoromethyl)-7-(3-hydroxy-2,6-dimethylphenyl)-3H-imidazo[4,5-b]pyridine-5-carboxamide]

- IC50 [1]: < 50 nM
- IC50 (PKMYT1): < 50 nM
SMILES: Cc1ccc(O)c(C)c1-c1c(N)c(C(N)=O)nc2c1ncn2C1CC(F)(F)C1 (atropisomer, axis not shown; (P)) [Compound 75, (P)-6-amino-3-(3,3-difluorocyclobutyl)-7-(3-hydroxy-2,6-dimethylphenyl)-3H-imidazo[4,5-b]pyridine-5-carboxamide]

- IC50 [1]: < 50 nM
- IC50 (PKMYT1): < 50 nM
SMILES: CCn1cnc2c(-c3c(C)ccc(O)c3C)c(N)c(C(N)=O)nc21 (atropisomer, axis not shown; (P)) [Compound 81, (P)-6-amino-3-ethyl-7-(3-hydroxy-2,6-dimethylphenyl)-3H-imidazo[4,5-b]pyridine-5-carboxamide]

- IC50 [1]: < 50 nM
- IC50 (PKMYT1): < 50 nM
SMILES: Cc1ccc(O)c(C)c1-c1c(N)c(C(N)=O)cc2c1ncn2C(F)F (atropisomer, axis not shown; (P)) [Compound 85, (P)-5-amino-1-(difluoromethyl)-4-(3-hydroxy-2,6-dimethylphenyl)-1H-benzo[d]imidazole-6-carboxamide]

- IC50 [1]: < 50 nM
- IC50 (PKMYT1): < 50 nM
SMILES: Cc1ccc(O)c(C)c1-c1c(N)c(C(N)=O)nc2c1ncn2CC(F)(F)F (atropisomer, axis not shown; (P)) [Compound 86, (P)-6-amino-7-(3-hydroxy-2,6-dimethylphenyl)-3-(2,2,2-trifluoroethyl)-3H-imidazo[4,5-b]pyridine-5-carboxamide]

- IC50 [1]: < 50 nM
- IC50 (PKMYT1): < 50 nM
SMILES: Cc1ccc(O)c(C)c1-c1c(N)c(C(N)=O)cc2c1ncn2-c1ncccc1F (atropisomer, axis not shown; (P)) [Compound 87, (P)-5-amino-1-(3-fluoropyridin-2-yl)-4-(3-hydroxy-2,6-dimethylphenyl)-1H-benzo[d]imidazole-6-carboxamide]
